Laboratory results as given in patent publication US6413935B1, “Induction of immune response against desired determinants” (priority 1993, dated 2002).
Several values for one entry are separate records, joined by “and”; a condition that tells them apart may be missing. Equal entries are not always repeated. Where two headings read alike, the source gives them in different places.

What was measured:
DR3 = DR3 (Homo sapiens, UniProt P01903+P01911, A100K/A102G/A103R/A169T/F55Y/I96L/K41T/L162R/M171V/P40S/Q125H/Q178H/Q39Y/R42S/S66N/T106N/T262R/W38E/Y61H); assay: biochemical; conditions: PADRE Class II Binding Affinities DR3, Table IX
DR1 = DR1 (Homo sapiens, UniProt P01903+P01911, A100R/D57E/F55L/F60I/F76Y/I96L/L162R/M171V/P40L/Q125E/R42F/V115G/Y59C); assay: biochemical
DR2w2a = DR2w2a (Homo sapiens, UniProt P01903+Q30154); assay: biochemical; conditions: PADRE Class II Binding Affinities DR2w282, Table IX
DR4w4 = DR4w4 (Homo sapiens, UniProt P01903+P01911, A100K/A169T/F76Y/I96L/K127E/L162R/M171V/N62H/P40V/Q125Y/R42H/S133A/S149N/S66Y/V115G/V209L/W38E); assay: biochemical
human PBMC T cell lines = assay type: cell-based
DR5 = conditions: read-out: PADRE Class II Binding Affinities DR5, Table IX
IA^k = target: T1, IA^k (Mus musculus, UniProt P01910+P06343); assay: biochemical; assay type: binding; conditions: Table III; read-out: Capacity to bind purified IA^k, IC50
T1 construct: Various cell lines were used as sources of purified human and mouse class II molecules; endogenous in cells; host or cells: CH12

IE^d = target: T2, IE^d (Mus musculus, UniProt P01904+P01915); assay: biochemical; assay type: binding; conditions: Table III; read-out: Capacity to bind purified IE^d, IC50
T2 construct: Various cell lines were used as sources of purified human and mouse class II molecules; endogenous in cells; host or cells: A20
T2 sequence (P01904 26-255): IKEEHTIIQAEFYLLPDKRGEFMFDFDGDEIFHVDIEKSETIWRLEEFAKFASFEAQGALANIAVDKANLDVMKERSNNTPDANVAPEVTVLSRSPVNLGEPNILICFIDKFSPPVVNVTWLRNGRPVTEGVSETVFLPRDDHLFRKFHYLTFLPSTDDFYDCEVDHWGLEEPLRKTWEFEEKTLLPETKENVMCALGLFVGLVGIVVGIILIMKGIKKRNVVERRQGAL
T2 sequence (P01915 27-264 limits assumed): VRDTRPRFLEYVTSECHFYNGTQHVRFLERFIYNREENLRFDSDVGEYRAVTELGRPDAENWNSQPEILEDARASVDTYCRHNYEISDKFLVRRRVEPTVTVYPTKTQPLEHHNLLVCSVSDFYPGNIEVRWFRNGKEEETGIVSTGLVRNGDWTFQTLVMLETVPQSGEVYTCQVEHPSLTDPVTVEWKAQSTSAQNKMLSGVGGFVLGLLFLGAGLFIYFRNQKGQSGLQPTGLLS

IA^s = target: T3, IA^s (Mus musculus, UniProt P06345+P14437); assay: biochemical; assay type: binding; conditions: Table III; read-out: Capacity to bind purified IA^s, IC50
T3 construct: Various cell lines were used as sources of purified human and mouse class II molecules; endogenous in cells; host or cells: LS102.9
T3 sequence (P14437 1-233): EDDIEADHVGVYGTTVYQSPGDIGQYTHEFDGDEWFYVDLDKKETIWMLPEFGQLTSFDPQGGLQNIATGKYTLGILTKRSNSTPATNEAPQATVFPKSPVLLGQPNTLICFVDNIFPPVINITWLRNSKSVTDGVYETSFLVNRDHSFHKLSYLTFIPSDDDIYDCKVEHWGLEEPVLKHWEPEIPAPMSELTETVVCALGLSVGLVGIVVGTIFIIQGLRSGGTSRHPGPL
T3 sequence (P06345 28-263): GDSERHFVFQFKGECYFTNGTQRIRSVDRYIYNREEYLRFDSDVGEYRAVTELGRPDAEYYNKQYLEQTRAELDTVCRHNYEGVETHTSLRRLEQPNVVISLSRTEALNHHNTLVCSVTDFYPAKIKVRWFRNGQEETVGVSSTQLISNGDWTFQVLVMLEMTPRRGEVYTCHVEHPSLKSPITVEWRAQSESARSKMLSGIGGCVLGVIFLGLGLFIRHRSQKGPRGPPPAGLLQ

DR7 = conditions: read-out: PADRE Class II Binding Affinities DR7, Table IX
[1] = PADRE Class II Binding Affinities DR1, Table IX
[2] = PADRE Class II Binding Affinities DR4w4, Table IX

Chain of DR2w2a (P01903 26-254): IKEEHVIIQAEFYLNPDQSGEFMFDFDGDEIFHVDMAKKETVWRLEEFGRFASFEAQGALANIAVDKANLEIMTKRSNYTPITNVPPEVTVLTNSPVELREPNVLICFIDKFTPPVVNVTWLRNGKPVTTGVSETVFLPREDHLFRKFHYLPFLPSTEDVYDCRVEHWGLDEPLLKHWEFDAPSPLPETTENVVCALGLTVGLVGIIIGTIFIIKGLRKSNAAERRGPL
Chain of DR2w2a (Q30154 30-266): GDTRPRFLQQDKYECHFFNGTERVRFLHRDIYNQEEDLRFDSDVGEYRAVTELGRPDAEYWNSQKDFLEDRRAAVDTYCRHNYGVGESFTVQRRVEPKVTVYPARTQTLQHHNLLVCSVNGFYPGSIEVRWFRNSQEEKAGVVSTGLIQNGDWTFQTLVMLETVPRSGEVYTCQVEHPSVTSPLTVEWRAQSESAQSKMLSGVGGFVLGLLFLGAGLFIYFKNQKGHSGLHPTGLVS
T1 sequence (P01910 24-256): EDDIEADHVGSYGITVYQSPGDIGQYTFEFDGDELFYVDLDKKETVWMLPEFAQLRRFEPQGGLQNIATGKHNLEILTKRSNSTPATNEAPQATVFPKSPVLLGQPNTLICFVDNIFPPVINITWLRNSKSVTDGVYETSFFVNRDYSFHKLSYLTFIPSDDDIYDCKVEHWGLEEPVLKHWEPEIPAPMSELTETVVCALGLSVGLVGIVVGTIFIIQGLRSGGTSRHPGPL
T1 sequence (P06343 28-263): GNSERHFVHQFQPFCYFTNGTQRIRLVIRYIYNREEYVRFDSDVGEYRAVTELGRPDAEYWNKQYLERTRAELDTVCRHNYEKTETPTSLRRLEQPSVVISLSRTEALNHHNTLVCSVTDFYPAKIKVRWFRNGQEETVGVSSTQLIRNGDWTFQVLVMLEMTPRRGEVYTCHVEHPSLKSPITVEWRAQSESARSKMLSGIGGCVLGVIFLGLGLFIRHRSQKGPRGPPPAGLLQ

SMILES | IC50 (DR1; [1]) | IC50 (DR2w2a) | Donors with significant (>10,000 cpm) T cell response / donors tested, second stimulation (human PBMC T cell lines) | Donors with significant (>10,000 cpm) T cell response / donors tested, third stimulation (human PBMC T cell lines) | IC50 (DR4w4; [2]) | IC50 (DR5) | further results
CC(C)C[C@H](NC(=O)[C@@H](NC(=O)[C@H](Cc1ccc(O)cc1)NC(=O)[C@H](C)NC(=O)[C@H](C)NC(=O)[C@@H](NC(=O)[C@H](CC1CCCCC1)NC(=O)[C@H](CCCCN)NC(=O)[C@@H](C)N)C(C)C)[C@@H](C)O)C(=O)N[C@@H](CCCCN)C(=O)N[C@@H](C)C(=O)N[C@@H](C)C(=O)N[C@H](C)C(N)=O [Peptide 965.091] | 0.6 nM | 7.4 nM and 6.4 nM | 4/5 | 4/5 | – | – | IC50 (DR3): 450 nM and 3210 nM; IC50 (DR1; PADRE Class II Binding Affinities DR1): 0.8 nM; IC50 (DR4w4; PADRE Class II Binding Affinities DR4w4): 1 nM; IC50 (DR5; listed as 965.092): 6.5 nM
CC[C@H](C)[C@H](N)C(=O)N[C@@H](CO)C(=O)N[C@@H](CCC(N)=O)C(=O)N[C@@H](C)C(=O)N[C@H](C(=O)N[C@@H](Cc1c[nH]cn1)C(=O)N[C@@H](C)C(=O)N[C@@H](C)C(=O)N[C@@H](Cc1c[nH]cn1)C(=O)N[C@@H](C)C(=O)N[C@@H](CCC(=O)O)C(=O)N[C@H](C(=O)N[C@@H](CC(N)=O)C(=O)N[C@@H](CCC(=O)O)C(=O)O)[C@@H](C)CC)C(C)C [Ova 323-336, ISQAVHAAHAEINE] | – | – | – | – | – | – | IC50 (IA^k): 1000 nM; IC50 (IE^d): > 10000 nM; IC50 (IA^s): 1040 nM
CC(C)C[C@H](NC(=O)[C@@H](NC(=O)[C@H](C)NC(=O)[C@H](C)NC(=O)[C@H](C)NC(=O)[C@@H](NC(=O)[C@H](CC1CCCCC1)NC(=O)[C@H](CCCCN)NC(=O)[C@@H](C)N)C(C)C)[C@@H](C)O)C(=O)N[C@@H](CCCCN)C(=O)N[C@@H](C)C(=O)N[C@@H](C)C(=O)N[C@H](C)C(N)=O [Peptide 965.16] | – | – | 0/5 | 1/5 | – | – | –
CC(C)C[C@H](NC(=O)[C@@H](NC(=O)[C@H](Cc1ccc(O)cc1)NC(=O)[C@H](C)NC(=O)[C@H](Cc1c[nH]c2ccccc12)NC(=O)[C@@H](NC(=O)[C@H](CC1CCCCC1)NC(=O)[C@H](CCCCN)NC(=O)[C@@H](C)N)C(C)C)[C@@H](C)O)C(=O)N[C@@H](CCCCN)C(=O)N[C@@H](C)C(=O)N[C@@H](C)C(=O)N[C@H](C)C(N)=O [Peptide 965.041] | 0.5 nM | 2.5 nM | – | – | 0.5 nM | 4.7 nM | –
CC(C)C[C@H](NC(=O)[C@@H](NC(=O)[C@H](CCCCN)NC(=O)[C@H](C)NC(=O)[C@H](C)NC(=O)[C@@H](NC(=O)[C@H](CC1CCCCC1)NC(=O)[C@H](CCCCN)NC(=O)[C@@H](C)N)C(C)C)[C@@H](C)O)C(=O)N[C@@H](CCCCN)C(=O)N[C@@H](C)C(=O)N[C@@H](C)C(=O)N[C@H](C)C(N)=O [Peptide 965.14] | – | – | 1/5 | 3/5 | – | 34.5 nM | –
CC(C)C[C@H](NC(=O)[C@@H](NC(=O)[C@@H](NC(=O)[C@H](C)NC(=O)[C@H](Cc1c[nH]c2ccccc12)NC(=O)[C@@H](NC(=O)[C@H](CC1CCCCC1)NC(=O)[C@H](CCCCN)NC(=O)[C@@H](C)N)C(C)C)C(C)C)[C@@H](C)O)C(=O)N[C@@H](CCCCN)C(=O)N[C@@H](C)C(=O)N[C@@H](C)C(=O)N[C@H](C)C(N)=O [Peptide 965.042] | 0.2 nM | 9.5 nM | – | – | 1 nM | – | –
CC(C)C[C@H](NC(=O)[C@@H](NC(=O)[C@H](CC(N)=O)NC(=O)[C@H](C)NC(=O)[C@H](CCCCN)NC(=O)[C@@H](NC(=O)[C@H](CC1CCCCC1)NC(=O)[C@H](CCCCN)NC(=O)[C@@H](C)N)C(C)C)[C@@H](C)O)C(=O)N[C@@H](CCCCN)C(=O)N[C@@H](C)C(=O)N[C@@H](C)C(=O)N[C@H](C)C(N)=O [Peptide 965.011] | 1.5 nM and 1.3 nM | 12.5 nM and 10.5 nM | – | – | – | 11.8 nM | IC50 (DR3): 592 nM and 4590 nM; IC50 (DR7; listed as 965.012): 781 nM; IC50 (DR5; listed as 965.012): 2.2 nM
CSCC[C@H](NC(=O)[C@@H](NC(=O)[C@H](CC1CCCCC1)NC(=O)[C@H](CCCCN)NC(=O)[C@@H](C)NC(=O)[C@H](CO)NC(=O)[C@H](CO)NC(=O)[C@@H](N)CCCCN)C(C)C)C(=O)N[C@@H](C)C(=O)N[C@@H](C)C(=O)N[C@H](C(=O)N[C@@H](CC(C)C)C(=O)N[C@@H](CCCCN)C(=O)N[C@@H](C)C(=O)N[C@@H](C)C(=O)N[C@H](C)C(N)=O)[C@@H](C)O [Peptide 965.19] | – | 23.5 nM | – | – | – | – | –
CC(C)C[C@H](NC(=O)[C@@H](NC(=O)[C@H](CC(N)=O)NC(=O)[C@H](C)NC(=O)[C@H](C)NC(=O)[C@@H](NC(=O)[C@H](CC1CCCCC1)NC(=O)[C@H](CCCCN)NC(=O)[C@@H](C)N)C(C)C)[C@@H](C)O)C(=O)N[C@@H](CCCCN)C(=O)N[C@@H](C)C(=O)N[C@@H](C)C(=O)N[C@H](C)C(N)=O [Peptide 965.081] | – | – | 1/5 | 2/5 | – | – | IC50 (DR5; listed as 965.082): 12.5 nM
CC(C)C[C@H](NC(=O)[C@@H](NC(=O)[C@H](CC(N)=O)NC(=O)[C@H](C)NC(=O)[C@H](CCCNC(=N)N)NC(=O)[C@@H](NC(=O)[C@H](CC1CCCCC1)NC(=O)[C@H](CCCNC(=N)N)NC(=O)[C@@H](C)N)C(C)C)[C@@H](C)O)C(=O)N[C@@H](CCCCN)C(=O)N[C@@H](C)C(=O)N[C@@H](C)C(=O)N[C@H](C)C(N)=O [Peptide 965.06] | 0.8 nM | 6.4 nM | – | – | 1.3 nM | 5.6 nM | IC50 (DR7): 73.5 nM
CC(C)C[C@H](NC(=O)[C@@H](NC(=O)[C@H](Cc1c[nH]c2ccccc12)NC(=O)[C@H](C)NC(=O)[C@H](CCCCN)NC(=O)[C@@H](NC(=O)[C@H](CC1CCCCC1)NC(=O)[C@H](CCCCN)NC(=O)[C@@H](C)N)C(C)C)[C@@H](C)O)C(=O)N[C@@H](CCCCN)C(=O)N[C@@H](C)C(=O)N[C@@H](C)C(=O)N[C@H](C)C(N)=O [Peptide 965.021] | 0.8 nM and 0.7 nM | 5.7 nM and 9 nM | – | – | – | 4.1 nM | IC50 (DR7): 89.3 nM; IC50 (DR7; listed as 965.022): 338 nM; IC50 (DR5; listed as 965.022): 1.1 nM
CC(C)C[C@H](NC(=O)[C@@H](NC(=O)[C@H](Cc1c[nH]c2ccccc12)NC(=O)[C@H](C)NC(=O)[C@H](Cc1ccc(O)cc1)NC(=O)[C@@H](NC(=O)[C@H](CC1CCCCC1)NC(=O)[C@H](CCCCN)NC(=O)[C@@H](C)N)C(C)C)[C@@H](C)O)C(=O)N[C@@H](CCCCN)C(=O)N[C@@H](C)C(=O)N[C@@H](C)C(=O)N[C@H](C)C(N)=O [Peptide 965.051] | 0.5 nM and 0.7 nM | 7.1 nM and 9 nM | – | – | 0.3 nM and 0.8 nM | 5.7 nM | IC50 (DR7; listed as 965.052): 25.5 nM; IC50 (DR5; listed as 965.052): 6.9 nM
